Converted amounts (≈) assume the structure as drawn. One block for each molecule: values may come before it.
How the values were obtained:
physchem = settings: SIF, pH 6.8
[1] = Cmax in dog at 2 mg/kg, po; type: ADME, organism-based, Canis lupus familiaris; design: dose 2 mg/kg, route oral; settings: in vivo
[2] = Clearance in mouse at 5 mg/kg, po or 1 mg/kg, iv; type: ADME, organism-based; settings: in vivo
[3] = Half life in rat at 0.5 mg/kg, iv; type: ADME, organism-based; settings: in vivo
[4] = Volume of distribution at steady state in mouse at 5 mg/kg, po or 1 mg/kg, iv; type: ADME, organism-based; settings: in vivo, read-out: Vdss
[5] = Cmax in rat at 2 mg/kg, po; type: ADME, organism-based; design: dose 2 mg/kg, route oral; settings: in vivo
[6] = Clearance in cynomolgus monkey at 2 mg/kg, po or 0.5 mg/kg, iv; type: ADME, organism-based, Macaca fascicularis; settings: in vivo
[7] = Volume of distribution at steady state in rat at 2 mg/kg, po or 0.5 mg/kg, iv; type: ADME, organism-based; settings: in vivo, read-out: Vdss
[8] = Half life in mouse at 1 mg/kg, iv; type: ADME, organism-based; settings: in vivo
[9] = Tmax in dog at 2 mg/kg, po or 0.5 mg/kg, iv; type: ADME, organism-based, Canis lupus familiaris; settings: in vivo
[10] = Volume of distribution at steady state in dog at 2 mg/kg, po or 0.5 mg/kg, iv; type: ADME, organism-based, Canis lupus familiaris; settings: in vivo, read-out: Vdss
[11] = Cmax in mouse at 5 mg/kg, po; type: ADME, organism-based; design: dose 5 mg/kg, route oral; settings: in vivo
[12] = Half life in cynomolgus monkey at 0.5 mg/kg, iv; type: ADME, organism-based, Macaca fascicularis; settings: in vivo
[13] = Oral bioavailability in dog at 2 mg/kg; type: ADME, organism-based, Canis lupus familiaris; settings: in vivo
[14] = Terminal plasma concentration in ob/ob mouse at 3 mg/kg, po administered 30 mins prior to testing by oral glucose tolerance test; type: ADME, organism-based; settings: read-out: Cp(T)
[15] = Clearance in rat at 2 mg/kg, po or 0.5 mg/kg, iv; type: ADME, organism-based; settings: in vivo
[16] = Volume of distribution at steady state in cynomolgus monkey at 2 mg/kg, po or 0.5 mg/kg, iv; type: ADME, organism-based, Macaca fascicularis; settings: in vivo, read-out: Vdss
[17] = Tmax in cynomolgus monkey at 2 mg/kg, po or 0.5 mg/kg, iv; type: ADME, organism-based, Macaca fascicularis; settings: in vivo
[18] = Terminal plasma concentration in ob/ob mouse at 10 mg/kg, po administered 30 mins prior to testing by oral glucose tolerance test; type: ADME, organism-based; settings: read-out: Cp(T)
[19] = Clearance in dog at 2 mg/kg, po or 0.5 mg/kg, iv; type: ADME, organism-based, Canis lupus familiaris; settings: in vivo
[20] = Half life in dog at 0.5 mg/kg, iv; type: ADME, organism-based, Canis lupus familiaris; settings: in vivo
[21] = Oral bioavailability in cynomolgus monkey at 2 mg/kg; type: ADME, organism-based, Macaca fascicularis; settings: in vivo
[22] = Terminal plasma concentration in ob/ob mouse at 30 mg/kg, po administered 30 mins prior to testing by oral glucose tolerance test; type: ADME, organism-based; settings: read-out: Cp(T)
[23] = Cmax in cynomolgus monkey at 2 mg/kg, po; type: ADME, organism-based, Macaca fascicularis; design: dose 2 mg/kg, route oral; settings: in vivo
[24] = Tmax in rat at 2 mg/kg, po or 0.5 mg/kg, iv; type: ADME, organism-based; settings: in vivo
in vivo = settings: mouse, po, 5 mg/kg
[25] = Tmax in mouse at 5 mg/kg, po or 1 mg/kg, iv; type: ADME, organism-based; settings: in vivo

solubility (physchem): 226 µM (≈ 92.5 µg/mL)
SMILES: CNC(=O)Nc1cc(Oc2cncc(C)c2)c(-c2ccc(OC[C@@H](C)O)nc2)cn1

solubility (physchem): 176 µM (≈ 72.1 µg/mL)
SMILES: CNC(=O)Nc1cc(Oc2cncc(C)c2)c(-c2ccc(OC[C@H](C)O)nc2)cn1

Cmax [1]: 3520 nM
clearance [2]: 6.17 mL/min/kg
half-life [3]: 1.4 h
Vd [4]: 0.59 L/kg
Cmax [5]: 490 nM
clearance [6]: 10 mL/min/kg
Vd [7]: 2.18 L/kg
solubility (physchem): 46 µM (≈ 19.5 µg/mL)
half-life [8]: 2 h
Tmax [9]: 1.33 h
Vd [10]: 1.49 L/kg
Cmax [11]: 350 nM
half-life [12]: 6.7 h
bioavailability [13]: 99%
clearance [15]: 27.3 mL/min/kg
Vd [16]: 2.29 L/kg
Tmax [17]: 1.67 h
clearance [19]: 4.17 mL/min/kg
half-life [20]: 6.5 h
bioavailability [21]: 70%
Cmax [23]: 1150 nM
Tmax [24]: 0.83 h
bioavailability (in vivo): 25%
Tmax [25]: 0.33 h
SMILES: CNC(=O)Nc1cc(Oc2cncc(C)c2)c(-c2ccc(OCC(C)(C)O)nc2)cn1
concentration at 0.5 h [14]: 1200 nM
concentration at 0.5 h [18]: 3600 nM
concentration at 0.5 h [22]: 38000 nM

SMILES: CNC(=O)Nc1cc(Oc2cncc(C)c2)c(-c2ccc(OCCO)nc2)cn1
solubility (physchem): < 1 µM
bioavailability (in vivo): 6%

From ChEMBL document CHEMBL4425170, “Novel Series of Potent Glucokinase Activators Leading to the Discovery of AM-2394” (ACS Med Chem Lett, 2016)
